For this assay, the system named is WT FMDV StopGo expressing construct in HEK-293 cells. It counts as cell-based, human.

The values below come from patent US20110136730A1, “"Method for screening compounds comprising the use of picornavirus protease 2A"” (priority 2008, published 2011).

`COc1ccc(C[C@H]2NC[C@H](O)[C@H]2OC(C)=O)cc1` [anisomycin]: the “effect on the Renilla/firefly ratio of the WT StopGo expressing construct” value (shortened to “effect on the Renilla/firefly ratio”) is listed as “do not affect StopGo”.
For the compound `CC[C@H]1OC(=O)[C@H](C)[C@@H](O[C@H]2C[C@@](C)(OC)[C@@H](O)[C@H](C)O2)[C@H](C)[C@@H](O[C@@H]2O[C@H](C)C[C@H](N(C)C)[C@H]2O)[C@](C)(O)C[C@@H](C)CN(C)[C@H](C)[C@@H](O)[C@]1(C)O` [azithromycin], the “effect on the Renilla/firefly ratio” value is “do not affect StopGo”.
Turning to `CC[C@H]1OC(=O)[C@H](C)[C@@H](O[C@H]2C[C@@](C)(OC)[C@@H](O)[C@H](C)O2)[C@H](C)[C@@H](O[C@@H]2O[C@H](C)C[C@H](N(C)C)[C@H]2O)[C@](C)(OC)C[C@@H](C)C(=O)[C@H](C)[C@@H](O)[C@]1(C)O` [clarithromycin], the “effect on the Renilla/firefly ratio” value is on record as “do not affect StopGo”.
As to `CCC[C@@H]1C[C@@H](C(=O)N[C@@H]([C@H]2O[C@H](SC)[C@H](O)[C@@H](O)[C@H]2O)[C@H](C)Cl)N(C)C1` [clindomygin], the “effect on the Renilla/firefly ratio” value is “do not affect StopGo”.
Turning to `C[C@H]1O[C@H](O[C@H]2[C@H](O)[C@@H](O)[C@@H](O)[C@H](O)[C@@H]2O)[C@@H](N)C[C@@H]1NC(=N)C(=O)O` [kasugamycin], the “effect on the Renilla/firefly ratio” value is given as “do not affect StopGo”.
As for `CCC[C@@H]1C[C@@H](C(=O)N[C@@H]([C@H]2O[C@H](SC)[C@H](O)[C@@H](O)[C@H]2O)[C@@H](C)O)N(C)C1` [lincomycin], the “effect on the Renilla/firefly ratio” value was “do not affect StopGo”.
As for `C=C[C@]1(C)C[C@@H](OC(=O)CSCCN(CC)CC)[C@]2(C)[C@H](C)CC[C@]3(CCC(=O)[C@H]32)[C@@H](C)[C@@H]1O` [tiamulin], the “effect on the Renilla/firefly ratio” value is “do not affect StopGo”.
For `CO[C@H]1C[C@H](O[C@H]2[C@H](C)[C@@H](O[C@@H]3O[C@H](C)C[C@H](N(C)C)[C@H]3OC(C)=O)[C@@H](C)C[C@@]3(CO3)C(=O)[C@H](C)[C@@H](OC(C)=O)[C@@H](C)[C@@H](C)OC(=O)[C@@H]2C)O[C@@H](C)[C@@H]1OC(C)=O` [troleandomycin], the “effect on the Renilla/firefly ratio” value is reported as “do not affect StopGo”.
For the compound `CC[C@H]1OC(=O)C[C@@H](O)[C@H](C)[C@@H](O[C@@H]2O[C@H](C)[C@@H](O[C@H]3C[C@@](C)(O)[C@@H](O)[C@H](C)O3)[C@H](N(C)C)[C@H]2O)[C@@H](CC=O)C[C@@H](C)C(=O)/C=C/C(C)=C/[C@@H]1CO[C@@H]1O[C@H](C)[C@@H](O)[C@@H](OC)[C@H]1OC` [tylosin], the “effect on the Renilla/firefly ratio” value was “do not affect StopGo”.
Take `C=C[C@]1(C)C[C@@H](OC(=O)CSC(C)(C)CNC(=O)[C@H](N)C(C)C)[C@]2(C)[C@H](C)CC[C@]3(CCC(=O)[C@H]32)[C@@H](C)[C@@H]1O` [valnemulin]: the “effect on the Renilla/firefly ratio” value is listed as “do not affect StopGo”.
As for capromycin, the “effect on the Renilla/firefly ratio” value is listed as “do not affect StopGo”.
gentamycin: the “effect on the Renilla/firefly ratio” value is listed as “do not affect StopGo”.
